Test results reported in US20110053897A1 (IRM LLC, priority 2009, published 2011).

The compounds below were run against T1, Syk kinase (Homo sapiens, UniProt P43405) (assay: Syk kinase inhibition, Caliper LabChip off-chip mobility-shift kinase assay). Conditions: Caliper LabChip assay; read-out: Syk Enzyme IC50.
T1 construct: purchased
Format: biochemical
Method: Compounds of the examples and Table 1 provided herein were assayed to measure their capacity to inhibit Syk kinase.
Compounds of the examples and Table 1 provided herein were assessed for their ability to inhibit Syk kinase by utilizing Caliper Life Sciences' proprietary LabChip™ technology. The off-chip incubation mobility-shift kinase assay uses a microfluidic chip to measure the conversion of a fluorescent peptide substrate to a phosphorylated product. The reaction mixture, from a microtiter plate well, is introduced through a capillary sipper onto the chip, where the nonphosphorylated substrate and phosphorylated product are separated by electrophoresis and detected via laser induced fluorescence. […] The phosphorylated product migrates through the chip faster than the non-phosphorylated substrate, and signals from the two forms of the peptide appear as distinct peaks. Caliper's data analysis software (HTSWA) determines peak heights, from which the ratio of product to the peak sum P/(P+S) and percent (%) conversion is calculated. This value is used to compare compound wells to control wells present on the plate, and thereby determine the % inhibition values for the compound. The formula used to calculate % inhibition is as follows, where C100% is the average % conversion of the 100% activity wells and Co% is the average % conversion of the 0% activity wells: (1−(% conversionofsample−C0%)/(C100%−C0%))*100.
Compounds (10 mM stocks in 100% DMSO) are diluted to a final concentration of 5 μM for single point inhibition experiments, and a series dilution of 10, 3, 1, 0.3, 0.1, 0.03, 0.01, 0.003, 0.001, 0.0003, 0.0001, and 0.00003 μM were made for IC50 determination. Generally, 12 μL of enzyme buffer containing purified kinase (various amount; various suppliers), 100 mM HEPES, pH 7.5, 1 mM DTT (Calbiochem, 2333153), 10 mM MgCl2 (Sigma, M-1028) or 10 mM MnCl2 (Sigma, M-1787) (assay specific), and 0.002% Brij-35 (Sigma, B4184) are added to each well. Compound and enzyme are allowed to pre-incubate for 15 minutes. 12 μL of peptide/ATP buffer containing 100 mM HEPES, pH 7.5, 1.5 μM fluorescein-labeled peptide (specific to kinase of interest), ATP (at KM apparent, Sigma, A9187), and 0.002% Brij-35 is then added to each well to initiate the reaction. The final concentration of DMSO in the well is 4%. Generally, reactions are incubated for 1 to 1.5 hours at room temperature to obtain adequate conversion of peptide to phosphorylated product in the linear range of the reaction. Reactions are terminated with the addition of 45 μL of Stop Buffer (containing 20 mM EDTA). Plates are then read on the LabChip 3000 using a 12-sipper LabChip. % conversion values and % inhibition values are obtained as provided and IC50 curves of compounds are generated using GraphPad Prism Version 4 or 5.01, or XLfit Version 4.3.2. When using GraphPad Prism, a nonlinear curve fit using the sigmoidal dose response—variable slope fit was used to graph IC50 curves and determine IC50 values and hillslopes. When using XLfit, Fit Model 205 (4-Parameter Logistic Model) is used to generate and fit the IC50 curve.

IC50 [µM] | Structure (SMILES)
0.094 | COC/C=C/c1cc(Nc2cc3ccn(CCO)c(=O)c3c(NC(C)(C)C)n2)ncn1 [compound 621]
0.132 | O=C(Cn1ccc2cc(Nc3cnccn3)nc(N[C@H]3CC[C@@H](O)CC3)c2c1=O)N1CCOCC1 [compound 1007]
0.179 | CC(C)(C)Nc1nc(Nc2cnccn2)cc2ccn(CC(F)F)c(=O)c12 [compound 1023]
0.03 | COCCn1ccc2cc(-c3cnc(N)nc3)nc(NC(C)(C)C)c2c1=O [compound 910]
0.01 | O=c1c2c(N[C@H]3CC[C@@H](O)CC3)nc(Nc3cnccn3)cc2ccn1C1CS(=O)(=O)C1 [compound 1010]
0.046 | C=Cc1ccnc(Nc2cc3ccn(CCO)c(=O)c3c(NC(C)(C)C)n2)c1 [compound 858]
0.011 | CC(O)c1ccnc(Nc2cc3ccn(CCO)c(=O)c3c(NC3(C)CCC3)n2)c1 (stereo not drawn) [compound 718]
0.043 | CCC(C)(C)Nc1nc(-c2cnc(N)nc2)cc2cc[nH]c(=O)c12 [compound 893]
0.084 | CCn1ccc2cc(Nc3cc(C)ccn3)nc(N[C@@H]3CC[C@@H](O)C3)c2c1=O [compound 1040]
0.05 | CCn1ccc2cc(Nc3cnccn3)nc(N[C@H]3CC[C@H](O)CC3)c2c1=O [compound 949]
0.016 | CC(C)n1ccc2cc(Nc3cnccn3)nc(N[C@H]3CC[C@@H](O)C3)c2c1=O [compound 978]
0.205 | CC(C)(C)Nc1nc(Nc2cnccn2)cc2ccn(CCN3CCOCC3)c(=O)c12 [compound 998]
0.131 | CC(C)(C)Nc1nc(Nc2cc(C(C)(C)O)ccn2)cc2ccn(CCO)c(=O)c12 [compound 698, 8-(tert-butylamino)-2-(2-hydroxyethyl)-6-(4-(2-hydroxypropan-2-yl)pyridin-2-ylamino)-2,7-naphthyridin-1(2H)-one]
0.148 | CC1(Nc2nc(Nc3cc(C(C)(C)O)ncn3)cc3ccn(CC(N)=O)c(=O)c23)CC1 [compound 620]
0.013 | CC1(Cn2ccc3cc(-c4cnc(N)nc4)nc(NC(C)(C)C)c3c2=O)COC1 [compound 924]
0.026 | CC(C)(C)Nc1nc(-c2cnc(N)nc2)cc2ccn(CCCO)c(=O)c12 [compound 915]

IC50 [µM] | Structure (SMILES)
0.067 | Cc1ccnc(Nc2cc3ccn(CCN4CCOCC4)c(=O)c3c(N[C@H]3CC[C@@H](O)CC3)n2)c1 [compound 993]
0.006 | CC(C)(C)Nc1nc(Nc2cc(/C(N)=N/O)ccn2)cc2ccn(CCO)c(=O)c12 [compound 869]
0.015 | [2H]C(C)(O)c1cc(Nc2cc3ccn(CCO)c(=O)c3c(NC(C)(C)C)n2)ncc1F (stereo not drawn) [compound 876]
0.057 | CC(C)(C)Nc1nc(-c2cnc(N)nc2)cc2ccn(C(C)(C)C(N)=O)c(=O)c12 [compound 673]
0.161 | CC(C)(C)Nc1nc(Nc2cc(N3CCC(O)CC3)ncn2)cc2ccn(CCO)c(=O)c12 [compound 634]
0.679 | CC(O)c1ccnc(Nc2cc3ccn(CCO)c(=O)c3c(NC(C)(C)C)n2)n1 (stereo not drawn) [compound 715]
0.017 | CCn1ccc2cc(Nc3cnccn3)nc(N[C@H]3CC[C@H](O)C3)c2c1=O [compound 946]
0.066 | Nc1ncc(-c2cc3ccn(CC4(CO)COC4)c(=O)c3c(NC3CCCC3)n2)cn1 [compound 761]
0.06 | CC(C)(C)Nc1nc(Nc2cc(OCC3CCCO3)ncn2)cc2ccn(CC(O)CO)c(=O)c12 (stereo not drawn) [compound 891]
0.37 | O=c1c2c(NC3CCS(=O)(=O)C3)nc(Nc3cnccn3)cc2ccn1CCO (stereo not drawn) [compound 975]
0.025 | CC1(Nc2nc(-c3cnc(N)nc3)cc3ccn(CC4(CO)COC4)c(=O)c23)CCC1 [compound 933]
0.062 | C/C(=N\O)c1ccnc(Nc2cc3ccn(CCO)c(=O)c3c(NC(C)(C)C)n2)c1 [compound 685, (E)-8-(tert-butylamino)-2-(2-hydroxyethyl)-6-(4-(1-(hydroxyimino)ethyl)pyridin-2-ylamino)-2,7-naphthyridin-1(2H)-one]
0.003 | C[C@@H](O)c1ccnc(Nc2cc3ccn(CCO)c(=O)c3c(NC(C)(C)C)n2)c1 [compound 713]
0.111 | Cc1cnccc1-c1ccnc(Nc2cc3ccn(CCO)c(=O)c3c(NC(C)(C)C)n2)c1 [compound 853]
0.102 | CCc1cc(Nc2cc3ccn(CCO)c(=O)c3c(NC(C)(C)C)n2)ncn1 [compound 619, 8-(tert-butylamino)-6-(6-ethylpyrimidin-4-ylamino)-2-(2-hydroxyethyl)-2,7-naphthyridin-1(2H)-one]
0.103 | Cn1cc2cc(Nc3nc(Nc4cnccn4)cc4ccn(CCO)c(=O)c34)ccc2n1 [compound 659]

Same assay, conditions: read-out: Syk Enzyme IC50

IC50 [µM] | Structure (SMILES)
0.006 | O=c1c2c(N[C@H]3CC[C@@H](O)CC3)nc(Nc3cnccn3)cc2ccn1CCO [compound 376]
0.809 | O=c1[nH]ccc2cc(C3=CCSCC3)nc(Nc3ccc(N4CCOCC4)cc3)c12 [compound 14]
0.056 | CCN1CCN(c2n[nH]c3cc(Nc4nc(-c5ccc(C)nc5)cc5cc[nH]c(=O)c45)ccc23)CC1 [compound 200]
0.206 | CC(C)Nc1nc(Nc2ccc(C(N)=O)cn2)cc2cc[nH]c(=O)c12 [compound 540]
0.434 | Cc1cc(Nc2nc(Nc3cc(C(F)(F)F)ccn3)cc3cc[nH]c(=O)c23)ccc1C1CCN(C2CC2)CC1 [compound 255]
0.024 | COc1cncc(-c2cc3cc[nH]c(=O)c3c(Nc3ccc(C4CCN(CCC(N)=O)CC4)c(C)c3)n2)n1 [compound 158]
0.0486 | CCn1ccc2cc(Nc3cnccn3)nc(N[C@@H]3CC[C@H](O)C3)c2c1=O [compound 427]
0.003 | COc1cncc(-c2cc3cc[nH]c(=O)c3c(Nc3ccc(C4CCN(C(C)C)CC4)c(C)c3)n2)n1 [compound 165]
0.978 | Cc1ccnc(Nc2cc3c(F)cn(C)c(=O)c3c(NC(C)C)n2)c1 [compound 567]
0.99 | COc1ccc(-c2cc3cc[nH]c(=O)c3c(Nc3ccc(C4CCN(C5CC5)CC4)c(C)c3)n2)cc1OC [compound 213]
0.045 | CN(C)[C@H]1CC[C@H](c2ccc(Nc3nc(-c4cncnc4)cc4cc[nH]c(=O)c34)cc2)CC1 [compound 92]
0.139 | Cn1ccc2cc(Nc3cnccn3)nc(NCC3CCCO3)c2c1=O (stereo not drawn) [compound 475]
0.102 | CO/N=C(\C)c1cc2cc[nH]c(=O)c2c(Nc2ccc(C3CCNCC3)c(C)c2)n1 [compound 235]
0.114 | CC(C)(CO)Nc1nc(Nc2cnccn2)cc2ccn(CCO)c(=O)c12 [compound 473]
0.062 | Cn1ccc2cc(-c3cnc(N)nc3)nc(NC3CC3)c2c1=O [compound 38]
0.287 | CCn1ccc2cc(Nc3cc(C)ccn3)nc(NC[C@@H]3CC[C@](C)(O)C3)c2c1=O [compound 414]
0.443 | CC[C@H](C)Nc1nc(Nc2cc(C)ccn2)cc2cc[nH]c(=O)c12 [compound 283]
0.407 | CO/N=C(\C)c1cc2cc[nH]c(=O)c2c(Nc2ccc(C3CCN(C4CC4)CC3)c(C)c2)n1 [compound 237]
0.031 | CN1CCN(C2CCC(c3ccc(Nc4nc(-c5cncnc5)cc5cc[nH]c(=O)c45)cc3)CC2)CC1 (stereo not drawn) [compound 104]
0.3 | CCN1CCN(CCc2ccc(Nc3nc(-c4cnn(CC(C)C)c4)cc4c(F)c[nH]c(=O)c34)cc2)CC1 [compound 445]
0.075 | Cc1ccnc(Nc2cc3cc[nH]c(=O)c3c(NC(C)(C)C)n2)c1 [compound 494]
0.049 | Cn1ccc2cc(Nc3cnccn3)nc(N[C@H]3CC[C@H](O)CC3)c2c1=O [compound 358]
0.296 | [2H]C([2H])([2H])n1ccc2cc(Nc3cc(C)c(F)cn3)nc(NC(C)(C)C)c2c1=O [compound 531]
0.242 | CCn1ccc2cc(Nc3cc(C)ccn3)nc(NC(C)(C)C)c2c1=O [compound 525]
0.086 | CN1CCCN(CCc2ccc(Nc3nc(-c4cncnc4)cc4cc[nH]c(=O)c34)cc2)CC1 [compound 435]
0.377 | CC(C)Nc1nc(Nc2ccc(C#N)cn2)cc2cc[nH]c(=O)c12 [compound 570]
0.292 | NC(=O)c1ccnc(Nc2cc3cc[nH]c(=O)c3c(NC3CC3)n2)c1 [compound 559]
0.028 | O=c1[nH]ccc2cc(-c3cncnc3)nc(Nc3ccc(C4CCNCC4)c(F)c3)c12 [compound 194]
